Tests used:
[1] = system: hippocampal cGMP levels; experiment: Hippocampal cGMP assay after foot shock; type: in vivo, mice
Description: The hippocampal samples were extracted and snap frozen in liquid nitrogen. Levels of cGMP were quantitated by Enzyme Immunoassay procedure (Cayman Chemical Company, Item no. 581021) following the manufacturer's guidelines in duplicate. cGMP levels were normalized with the protein concentration calculated using BCA Protein Assay Reagent (Thermo Scientific).
cGMP levels in adult mice after treatment with compound H were measured. In a series of preliminary experiments, foot shock induces an immediate increase in cGMP levels in the hippocampus (FIG. 1). Concentration of cGMP was measured by enzyme immunoassay. Basal represents cGMP levels without foot shock. Values are the mean of duplicate determinations. Error bars show S.E.M. (n=3 per group); *p<0.01; ^‡p=0.033.

[2] = target: PDE5 (Homo sapiens (Human), UniProt O76074); experiment: PDE5 inhibition assay (BPS PDE assay kit, fluorescence polarization); type: biochemical; details: Table 1; 100 nM FAM-cGMP
Description: Materials and Methods: PDE5 inhibition was assayed at BPS Bioscience (San Diego, Calif.) using BPS PDE assay kits (BPS Catalog number 60300, enzyme lot 090810). Test compounds were supplied as liquid solutions of 10 mM concentration in DMSO. Sildenafil, used as a standard was dissolved in DMSO. Intermediate dilutions were 10% DMSO in PDE assay buffer and tests at ranges from 0.1 to 100 nM. 0.1 ng of enzyme was used per reaction, and the substrate was 100 nM FAM-cGMP.
Assay conditions: A series of dilutions of the test compounds were prepared with 10% DMSO in assay buffer and 5 μl of the dilution was added to a 50 μl reaction so that the final concentration of DMSO is 1% in all of reactions. The enzymatic reactions were conducted at room temperature for 60 minutes in a 50 μl mixture containing PDE assay buffer, 100 nM FAM-cAMP or 100 nM FAM-cGMP, a PDE enzyme, and the test compound. After the enzymatic reaction, 100 μl of a binding solution (1:100 dilution of the binding agent with the binding agent diluent) was added to each reaction and the reaction was performed at room temperature for 60 minutes. Fluorescence intensity was measured at an excitation of 485 nm and an emission of 528 nm using a Tecan Infinite M1000 microplate reader.
Data analysis: PDE activity assays were performed in duplicate at each concentration. Fluorescence intensity is converted to fluorescence polarization using the Tecan Magellan6 software. The fluorescence polarization data were analyzed using the computer software, Graphpad Prism. The fluorescence polarization (FPt) in absence of the compound in each data set was defined as 100% activity. In the absence of PDE and the compound, the value of fluorescent polarization (FPb) in each data set was defined as 0% activity. The percent activity in the presence of the compound was calculated according to the following equation: % activity=(FP−FPb)/(FPt−FPb)×100%, where FP=the fluorescence polarization in the presence of the compound.
The values of % activity versus a series of compound concentrations were then plotted using non-linear regression analysis of Sigmoidal dose-response curve generated with the equation Y=B+(T−B)/1+10^((LogEC50-X)×Hill Slope), where Y=percent activity, B=minimum percent activity, T=maximum percent activity, X=logarithm of compound and Hill Slope=slope factor or Hill coefficient. The IC50 value was determined by the concentration causing a half-maximal percent activity.

[3] = system: LTP at the CA3-CA1 connection of hippocampal slices; experiment: Long-term potentiation in hippocampal slices, compound in bath perfusion; parameters: species or system mice; details: 50 nM bath perfusion
[4] = system: APP/PS1 mice; experiment: Contextual fear conditioning (fear memory); type: in vivo; details: 3 mg/kg i.p. for 3 weeks
Description: Fear conditioning was assessed as described in B. Gong, O. V. Vitolo, F. Trinchese, S. Liu, M. Shelanski, O. Arancio, Persistent improvement in synaptic and cognitive functions in an Alzheimer mouse model after rolipram treatment, J. Clin. Invest. 114 (2004) 1624-1634; F. Trinchese, S. Liu, F. Battaglia, S. Walter, P. M. Mathews, O. Arancio, Progressive age-related development of Alzheimer-like pathology in APP/PS1 mice, Ann. Neurol. 55 (2004) 801-814; and B. Gong, Z. Cao, P. Zheng, O. V. Vitolo, S. Liu, A. Staniszewski, D. Moolman, H. Zhang, M. Shelanski, O. Arancio, Ubiquitin hydrolase Uch-L1 rescues beta-amyloid-induced decreases in synaptic function and contextual memory, Cell 126 (2006) 775-788; each herein incorporated by reference in its entirety. […] Freezing behavior, defined as the absence of movements except for respiratory excursions, was scored using Freezeview software (Med Associates, St. Albans, Vt.). Contextual fear learning was evaluated 24 hrs after training by measuring freezing responses for 5 min in the same chamber where the mice were trained. Cued fear learning was evaluated 24 hrs after contextual testing. The mice were placed in a novel context for 2 min (pre-CS test), after which they were given a CS for 3 min (CS test), and freezing behavior was measured during the first 30 sec that mimic the CS-US conditioning and the remaining 2.5 min. […]

SMILES: COc1ccc(CNc2c3c(nc4ccc(C#N)cc24)CCN(C(C)=O)C3)cc1Cl [Compound H, 2-acetyl-10-[(3-chloro-4-methoxybenzyl)amino]-1,2,3,4-tetrahydrobenzo[b][1,6]naphthyridine-8-carbonitrile]
- hippocampal cGMP level ([1]; 3 mg/kg i.p. 30 min before foot shock, 10 sec after shock): 0.48 ± 0.014 pmol/mg
- hippocampal cGMP level ([1]; 3 mg/kg i.p. 30 min before foot shock, 60 sec after shock): 0.58 ± 0.033 pmol/mg
- hippocampal cGMP level ([1]; 3 mg/kg i.p. 30 min before foot shock, 180 sec after shock): 0.58 ± 0.044 pmol/mg
- hippocampal cGMP level ([1]; 10 mg/Kg i.p. 30 min before foot shock, 10 sec after shock): 0.56 ± 0.033 pmol/mg
- hippocampal cGMP level ([1]; 10 mg/Kg i.p. 30 min before foot shock, 60 sec after shock): 0.70 ± 0.028 pmol/mg
- hippocampal cGMP level ([1]; 10 mg/Kg i.p. 30 min before foot shock, 180 sec after shock): 0.63 ± 0.013 pmol/mg
- IC50 [2]: 56 pM
- effect on LTP of WT slices [3]: no effect
- effect on contextual fear memory of WT mice [4]: no effect

From patent US10626113B2, “Phosphodiesterase inhibitors and uses thereof” (THE TRUSTEES OF COLUMBIA UNIVERSITY IN THE CITY OF NEW YORK, priority 2012, dated 2020)
